Laboratory results reported in patent US20070149519A1, “Benzimidazol substituted thiopene derivatives with activity on ikk3” (priority 2004, published 2007).

Biological target: T1, Recombinant human IKK3 (Homo sapiens, UniProt Q14164)
T1 construct: FLAG; made in house
T1 sequence (Q14164 1-716): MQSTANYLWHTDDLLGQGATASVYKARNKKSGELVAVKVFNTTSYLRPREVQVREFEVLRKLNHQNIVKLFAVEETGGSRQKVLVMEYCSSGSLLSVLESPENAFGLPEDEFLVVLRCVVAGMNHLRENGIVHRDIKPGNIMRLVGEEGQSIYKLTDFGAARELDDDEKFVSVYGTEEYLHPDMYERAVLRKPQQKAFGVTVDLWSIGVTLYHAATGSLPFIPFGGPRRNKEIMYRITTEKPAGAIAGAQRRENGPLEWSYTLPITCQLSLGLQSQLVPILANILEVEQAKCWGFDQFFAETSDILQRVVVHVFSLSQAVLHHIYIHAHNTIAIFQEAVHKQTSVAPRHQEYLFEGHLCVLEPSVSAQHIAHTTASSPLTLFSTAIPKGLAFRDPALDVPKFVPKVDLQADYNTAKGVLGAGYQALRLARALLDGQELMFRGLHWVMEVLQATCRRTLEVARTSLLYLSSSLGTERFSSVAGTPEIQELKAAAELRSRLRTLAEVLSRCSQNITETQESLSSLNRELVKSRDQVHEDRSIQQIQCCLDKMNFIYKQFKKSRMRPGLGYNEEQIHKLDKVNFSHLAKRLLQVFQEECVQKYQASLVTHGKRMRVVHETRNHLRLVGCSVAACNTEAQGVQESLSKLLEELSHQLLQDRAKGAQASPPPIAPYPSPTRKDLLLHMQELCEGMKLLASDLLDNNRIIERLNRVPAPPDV
Experiment: IKK3 TR-FRET kinase assay
Assay type: biochemical
Conditions: IKK3 15 nM, GST-IκBα 25 nM, ATP 2 μM, 15 minutes at room temperature
Protocol: Recombinant human IKK3 was expressed in baculovirus as a FLAG tagged fusion protein, and its activity was assessed using a time-resolved fluorescence resonance energy transfer (TR-FRET) assay. Briefly, IKK3 (15 nM final) diluted in assay buffer (50 mM HEPES, 10 mM MgCl2, 1 mM CHAPS pH 7.4 with 1 mM DTT and 0.01% w/v BSA) was added to wells containing various concentrations of compound or DMSO vehicle (3% final). The reaction was initiated by the addition of GST-IκBα substrate (25 nM final)/ATP (2 μM final), in a total volume of 30 μl. The reaction was incubated for 15 minutes at room temperature, then terminated by the addition of 15 μl of 50 mM EDTA. Detection reagent (15 μl) in buffer (100 mM HEPES pH 7.4, 150 mM NaCl and 0.1% w/v BSA) containing antiphosphoserine-IκBα-32/36 monoclonal antibody 12C2 (Cell Signalling Technology, Massachusetts, USA) labelled with W-1024 europium chelate (Wallac OY, Turku, Finland), and an APC-labelled anti-GST antibody (Prozyme, San Leandro, Calif., USA) was added and the reaction was further incubated for 45 minutes at room temperature. The degree of phosphorylation of GST-IκBα was measured using a Packard Discovery plate reader (Perkin-Elmer Life Sciences, Pangbourne, UK) as a ratio of specific 665 nm energy transfer signal to reference europium 620 nm signal.

Row | Structure (SMILES) | IC50
1 | Cc1ccccc1COc1cc(-n2cnc3ccccc32)sc1C#N [Example 3, 5-(1H-Benzimidazol-1-yl)-3-{[(2-methylphenyl)methyl]oxy}-2-thiophenecarbonitrile] | < 1000 nM
2 | COc1cc2ncn(-c3cc(OCc4ccccc4C(F)(F)F)c(C#N)s3)c2cc1OC [Example 5, 5-[5,6-Bis(methyloxy)-1H-benzimidazol-1-yl]-3-({[2-(trifluoromethyl)phenyl]methyl}oxy)-2-thiophenecarbonitrile] | < 1000 nM
3 | COc1cc2ncn(-c3cc(OCc4ccc5nnn(C)c5c4)c(C#N)s3)c2cc1OC [Example 6, 5-[5,6-bis(methyloxy)-1H-benzimidazol-1-yl]-3-{[(1-methyl-1H-1,2,3-benzotriazol-6-yl)methyl]oxy}-2-thiophenecarbonitrile] | < 1000 nM
4 | COc1cc2ncn(-c3cc(OCc4cc(F)ccc4F)c(C#N)s3)c2cc1OC [Example 8, 5-[5,6-Bis(methyloxy)-1H-benzimidazol-1-yl]-3-{[(2,5-difluorophenyl)methyl]oxy}-2-thiophenecarbonitrile] | < 1000 nM
5 | COc1cc2ncn(-c3cc(OCc4c(F)cccc4F)c(C#N)s3)c2cc1OC [Example 11, 5-[5,6-bis(Methyloxy)-1H-benzimidazol-1-yl]-3-{[(2,6-difluorophenyl)methyl]oxy}-2-thiophenecarbonitrile] | < 1000 nM
6 | COc1cc2c(cc1OCCCO)ncn2-c1cc(OCc2ccccc2C(F)(F)F)c(C#N)s1 [Example 12, 5-[5-[(3-Hvdroxypropyl)oxy]-6-(methyloxy)-1H-benzimidazol-1-yl]-3-({[2-(trifluoromethyl)phenyl]methyl}oxy)-2-thiophenecarbonitrile] | < 1000 nM
7 | COc1cc2ncn(-c3cc(OCC4CCCCC4)c(C#N)s3)c2cc1OC [Example 14, 5-[5,6-Bis(methyloxy)-1H-benzimidazol-1-yl]-3-[(cyclohexylmethyl)oxy]-2-thiophenecarbonitrile] | < 1000 nM
8 | N#Cc1sc(-n2cnc3cc(C(=O)NCCN4CCOCC4)ccc32)cc1OCc1ccccc1C(F)(F)F [Example 15, 1-[5-cyano-4-({[2-(trifluoromethyl)phenyl]methyl}oxy)-2-thienyl]-N-[2-(4-morpholinyl)ethyl]-1H-benzimidazole-5-carboxamide] | < 1000 nM
9 | COc1cc2ncn(-c3cc(OCCc4ccccc4)c(C#N)s3)c2cc1OC [Example 17, 5-[5,6-bis(methyloxy)-1H-benzimidazol-1-yl]-3-[(2-phenylethyl)oxy}-2-thiophenecarbonitrile] | < 1000 nM
10 | COc1cc2ncn(-c3cc(OCc4ccccc4OC(F)(F)F)c(C#N)s3)c2cc1OC [Example 18, 5-[5,6-bis(methyloxy)-1H-benzimidazol-1-yl]-3-[({2-[(trifluoromethyl)oxy]phenyl}methyl)oxy]-2-thiophenecarbonitrile] | < 1000 nM
11 | COc1cc2ncn(-c3cc(OCCOc4ccccc4)c(C#N)s3)c2cc1OC [Example 24, 5-[5,6-bis(methyloxy)-1H-benzimidazol-1-yl]-3-{[2-(phenyloxy)ethyl]oxy}-2-thiophenecarbonitrile] | < 1000 nM
12 | CCC[C@H](Oc1cc(-n2cnc3cc(OC)c(OC)cc32)sc1C#N)c1ccccc1Cl [Example 25, 5-[5,6-bis(methyloxy)-1H-benzimidazol-1-yl]-3-{[(1S)-1-(2-chlorophenyl)butyl]oxy}-2-thiophenecarbonitrile] | < 1000 nM
13 | COc1cc2ncn(-c3cc(OCc4ccsc4)c(C#N)s3)c2cc1OC [Example 26, 5-[5,6-bis(methyloxy)-1H-benzimidazol-1-yl]-3-[(3-thienylmethyl)oxy]-2-thiophenecarbonitrile] | < 1000 nM

Now from value to molecule:

Row | IC50 | Structure (SMILES)
14 | < 1000 nM | COc1cc2ncn(-c3cc(OCc4ccc(CO)cc4)c(C#N)s3)c2cc1OC [Example 1, 5-[5,6-Bis(methyloxy)-1H-benzimidazol-1-yl]-3-({[4-(hydroxymethyl)phenyl]methyl}oxy)-2-thiophenecarbonitrile]
15 | 1000 to 10000 nM | COc1cc2ncn(-c3cc(O[C@H](C)c4ccccc4Cl)c(C#N)s3)c2cc1OC [Example 2, 5-[5,6-Bis(methyloxy)-1H-benzimidazol-1-yl]-3-{[(1R)-1-(2-chlorophenyl)ethyl]oxy}-2-thiophenecarbonitrile]
16 | 1000 to 10000 nM | N#Cc1sc(-n2cnc3ccccc32)cc1OCc1ccccc1 [Example 4, 5-(1H-Benzimidazol-1-yl)-3-[(phenylmethyl)oxy]-2-thiophenecarbonitrile]
17 | < 1000 nM | COc1cc2c(cc1OCCN1CCOCC1)ncn2-c1cc(OCc2ccccc2C(F)(F)F)c(C#N)s1 [Example 7, 5-(6-(Methyloxy)-5-([2-(4-morpholinyl)ethyl]oxy)-1H-benzimidazol-1-yl)-3-({[2-(trifluoromethyl)phenyl]methyl}oxy)-2-thiophene carbonitrile]
18 | < 1000 nM | COc1cc2ncn(-c3cc(OCc4ccccc4S(C)(=O)=O)c(C#N)s3)c2cc1OC [Example 9, 5-[5,6-Bis(methyloxy)-1H-benzimidazol-1-yl]-3-({[2-(methylsulfonyl)phenyl]methyl}oxy)-2-thiophenecarbonitrile]
19 | 1000 to 10000 nM | N#Cc1sc(-n2cnc3cc(Cl)ccc32)cc1OCc1ccccc1 [Example 10, 5-(5-Chloro-1H-benzimidazol-1-yl)-3-[(phenylmethyl)oxy]-2-thiophenecarbonitrile]
20 | 1000 to 10000 nM | COc1cc2ncn(-c3cc(OCc4ccncc4Br)c(C#N)s3)c2cc1OC [Example 13, 5-[5,6-Bis(methyloxy)-1H-benzimidazol-1-yl]-3-{[(3-bromo-4-pyridinyl)methyl]oxy}-2-thiophenecarbonitrile]
21 | 1000 to 10000 nM | COc1cc2ncn(-c3cc(O[C@H](C)c4ccccc4C(F)(F)F)c(C#N)s3)c2cc1OC [Example 16, 5-[5,6-Bis(methyloxy)-1H-benzimidazol-1-yl]-3-({(1 R)-1-[2-(trifluoromethyl)phenyl]ethyl}oxy)-2-thiophenecarbonitrile]
22 | 1000 to 10000 nM | COc1ccccc1COc1cc(-n2cnc3cc(OC)c(OC)cc32)sc1C#N [Example 19, 5-[5,6-bis(methyloxy)-1H-benzimidazol-1-yl]-3-({[2-(methyloxy)phenyl]methyl}oxy)-2-thiophenecarbonitrile]
23 | 1000 to 10000 nM | COc1cc2ncn(-c3cc(OCCN4CCOCC4)c(C#N)s3)c2cc1OC [Example 20, 5-[5,6-bis(methyloxy)-1H-benzimidazol-1-yl]-3-{[2-(4-morpholinyl)ethyl]oxy}-2-thiophenecarbonitrile]
24 | < 1000 nM | COc1cc2ncn(-c3cc(OCCN4CCCC4=O)c(C#N)s3)c2cc1OC [Example 21, 5-[5,6-bis(methyloxy)-1H-benzimidazol-1-yl]-3-{[2-(2-oxo-1-pyrrolidinyl)ethyl]oxy}-2-thiophenecarbonitrile]
25 | 1000 to 10000 nM | COc1cc2ncn(-c3cc(OCC4CCCO4)c(C#N)s3)c2cc1OC (stereo not shown) [Example 22, 5-[5,6-bis(methyloxy)-1H-benzimidazol-1-yl]-3-[(tetrahydro-2-furanylmethyl)oxy]-2-thiophenecarbonitrile]
26 | < 1000 nM | COc1cc2ncn(-c3cc(OCC4CCCCO4)c(C#N)s3)c2cc1OC (stereo not shown) [Example 23, 5-[5,6-bis(methyloxy)-1H-benzimidazol-1-yl]-3-[(tetrahydro-2 H-pyran-2-ylmethyl)oxy]-2-thiophenecarbonitrile]
27 | < 1000 nM | COc1cc2ncn(-c3cc(OCc4cccs4)c(C#N)s3)c2cc1OC [Example 27, 5-[5,6-bis(methyloxy)-1H-benzimidazol-1-yl]-3-[(2-thienylmethyl)oxy]-2-thiophenecarbonitrile]
28 | 1000 to 10000 nM | CC[C@@H](C)Oc1cc(-n2cnc3cc(OC)c(OC)cc32)sc1C#N [Example 28, 5-[5,6-bis(methyloxy)-1H-benzimidazol-1-yl]-3-{[(1 R)-1-methylpropyl]oxy}-2-thiophenecarbonitrile]
